Source: US20080279961A1, “TELOMERE TARGETING AGENTS AS STEM CELLS DIRECTED TREATMENTS” (priority 2007, published 2008)
Entries after “also recorded” stand apart in the source; their conditions may differ.

Key:
[1] = test system: telomeres of UXF1138L xenografts; assay: telomere restriction fragment (TRF) length by Southern blot in primary cultures from xenografts; assay type: in vivo, xenograft
Experimental: Upon termination of the experiment, which was when tumors reached a volume of 1.5 cm in diameter (day 28), RHPS4 treated tumor tissue and control tumors were excised, minced and digested using a mixture of collagenase (123 U/ml), DNase (375 U/ml), and hyaluronidase (290 U/ml) in RPMI 1640 medium at 37° C. for 3 hrs. All enzymes were purchased from Roche, Indianapolis Ind.). Primary cultures as well as clonogenic growth assays were prepared from the resulting single cell suspensions. Primary cultures were used for analysis of telomere length. In addition, RHPS4 treated tumors (5 mg/kg/d) and control were propagated into new animals for up to three times. The control mouse group was always derived from untreated tumor fragments, but from the same initial passage as were the RHPS4 treated tumors (FIG. 1B).
To measure TRF (Telomere Restriction Fragment)-length, genomic DNA was isolated from 3-7 day primary cultures established from single cell suspensions of control and treated UXF1138L xenograft tissues using the DNeasy Tissue Kit (Qiagen, Hilden, Germany). Southern blotting was performed with the Telo-TAGGG-telomere length kit from Roche (Penzberg, Germany) and analyzed as described before (Burger et al., 2005; Cookson et al., 2005).

[2] = test system: hTERT; assay: hTERT immunofluorescence staining in vitro; assay type: cell-based, human; conditions: UXF1138L cells, 1 microM, 24 hrs
Experimental: During phosphorylated H2AX (gamma-H2AX) and hTERT immunofluorescence staining, approximately 75,000 UXF1138L cells/chamber were seeded onto 8 chamber glass slides (Costar) 24 hrs prior to RHPS4 treatment. After exposure to 1 μM RHPS4 for 1, 6, or 24 hours, cells were washed twice with PBS and air dried. Cells were fixed and permeabilized by immersion into ice-cold methanol/acetone (1:1; 3×1 min). Slides were blocked overnight at 4° C. with 5% BSA in PBS and washed with PBS (3×) before incubation (2 hrs) with anti-gamma-H2AX mouse monoclonal antibody (Upstate, Waltham, Mass.; 1:250 in PBS) or hTERT monoclonal antibody (NCL-L-hTERT Novacastra, Newcastle, UK; 1:40) respectively. Control cells were probed with mouse IgG (Santa Cruz Biotechnolog Inc., Santa Cruz, Calif.). Slides were washed 3× with PBS, before incubation with a goat anti-mouse FITC conjugated secondary antibody (Sigma; 1:100, 3 h). Following further PBS washes (3×), slides were incubated with 1:5000 DAPI (2 mg/ml; Sigma), washed 3× in PBS and mounted with Vectashield mounting media. Images were visualized as described above.

[3] = test system: UXF1138L cells; assay: metaphase spreads; assay type: cell-based, human; conditions: 1 microM, 24 hrs
Experimental: To prepare metaphase spreads, cells were grown to 70% confluency and treated with 1 μM RHPS4 or PBS (vehicle control) for 24 hours in a T75 tissue culture flask. Supernatants were then replaced with media containing 10 μg/ml Colcemid (Sigma) and incubated for 90-120 minutes at 37° C. Next, cells were trypsinized and centrifuged at 500×g for 5 minutes; 8 ml 60 mmol/l KCl was added to the pellets and the cell suspension incubated for 20 minutes at 37° C. In a pre-fixation step, 2 ml freshly made fixative (methanol/glacial […] 3:1) was added on top of the hypotonic suspension and mixed carefully by turning the tube. After 10 minutes at RT, the mix was centrifuged at 600×g for 10 min. and the supernatant removed. For fixation, 10 ml fixative were added and the mix is kept at RT for 10 min. and centrifuged as above, the step was repeated 2 more times. Then, 0.5 ml fresh fixative was added to obtain a milky suspension of cells without clumps. Cleaned slides were placed horizontally at a 45° angle and 100 μl of cell solution dropped onto the slide from a distance of about 20 cm. Slides were dried at RT or directly dehydrated through an ethanol series of 70%, 90% and 100%. After dehydration, slides were rinsed in PBS and incubated with 0.1 μg/ml DAPI (4′, 6-diamidino-2-phenylindole)/PBS for 30 minutes at RT. […]

[4] = test system: normal monkey bone marrow stem cells; assay: methylcellulose colony growth of bone marrow stem cells; assay type: cell-based; conditions: low drug concentrations
Experimental: (§1) For the monkey bone marrow and the human cord blood, methylcellulose from StemCell Technologies (Vancouver) was used to grow the stem cells as colonies. […] Cancer tissues are composed of various cell types, tumor cells, stromal fibroblasts, blood vessels, inflammatory cells, and adipocytes, all of which can carry over into single cell suspensions that are seeded into soft agar after tissue digestion. To examine whether tumor stem cells secrete cytokines that support their growth of enforce differentiation, the expression of 6 cytokines found in the supernatant of clonogenic assays was evaluated. Ultrasensitive immunoassay procedures based on the ELISA (enzyme linked immuno absorbent assay) technology were employed for the measurement of VEGF, TNF-alpha, GMCSF, GCSF IL4 and IL6. The assays were performed by the Cytokine Laboratory in the VA Hospital at the University of Maryland Baltimore and data provided as optical density readouts that were converted relative to a standard into pg/ml absolute cytokine values. The IL4 and 6 measurements were all negative; however VEGF, TNF-alpha, GMCSF and GCSF yielded interesting and differential results between tumor and normal stem cells. While cytokine levels decreased after RHPS4 treatment in tumor stem cell assays, they increased in normal stem cell cultures.

[5] = test system: HEK293T; assay: cytokine secretion into clonogenic assay supernatant (ELISA); assay type: cell-based, human; conditions: HEK293T normal stem cell culture supernatant
Experimental: as §1

[6] = test system: MCF-7; assay: as above; assay type: cell-based, human; conditions: MCF-7 tumor stem cell assay supernatant
Experimental: as §1

[7] = test system: Saos-2, HEK293T, UXF 1138, H460; assay: MTT assay in cell lines with short and long telomeres; assay type: cell-based, human

## COS(=O)(=O)[O-].Cc1cc2c3c([n+](C)c4ccc(F)cc4c3c1)-c1cc(F)ccc1N2C [RHPS4, 3,11-difluoro-6,8,13-trimethyl-8H-quino[4,3,2-kl]acridinium methosulfate]
[1]; Passage #1
  TRF [kb]: 5.1 kb
[1]; Passage #2
  TRF [kb]: ~4.7 kb
[1]; Passage #3
  TRF [kb]: ~3.4 kb
[1]; Passage #4
  TRF [kb]: 4.2 kb
[1]; passage ~28 days
  rate of TRF-length shortening: approximately 1 kb per passage
[2]
  nuclear hTERT expression in vitro: nuclear hTERT expression was attenuated; also recorded: nuclear hTERT signal is attenuated
[3]
  chromosome morphology in metaphase spreads: marked increase in end-to-end joining; also recorded: ring and dicentric chromosomes
[4]
  growth of normal monkey bone marrow stem cells: induces the growth
[5]
  secretion of stem cell associated cytokines: increased; also recorded: induction in cytokine secretion, particularly VEGF
[6]
  secretion of stem cell associated cytokines: decreased; also recorded: inhibition of tumor necrosis factor alpha, VEGF, GMCSF and GCSF
[7]
  difference in inhibitory concentrations 50% between cell lines with short and long telomeres: two log-fold
